Tests used:
PERK = molecular target: T1, PERK (Rattus norvegicus, UniProt Q9Z1Z1); test: Inhibition of PERK autophosphorylation; format: cell-based
T1 sequence (Q9Z1Z1 28-1108): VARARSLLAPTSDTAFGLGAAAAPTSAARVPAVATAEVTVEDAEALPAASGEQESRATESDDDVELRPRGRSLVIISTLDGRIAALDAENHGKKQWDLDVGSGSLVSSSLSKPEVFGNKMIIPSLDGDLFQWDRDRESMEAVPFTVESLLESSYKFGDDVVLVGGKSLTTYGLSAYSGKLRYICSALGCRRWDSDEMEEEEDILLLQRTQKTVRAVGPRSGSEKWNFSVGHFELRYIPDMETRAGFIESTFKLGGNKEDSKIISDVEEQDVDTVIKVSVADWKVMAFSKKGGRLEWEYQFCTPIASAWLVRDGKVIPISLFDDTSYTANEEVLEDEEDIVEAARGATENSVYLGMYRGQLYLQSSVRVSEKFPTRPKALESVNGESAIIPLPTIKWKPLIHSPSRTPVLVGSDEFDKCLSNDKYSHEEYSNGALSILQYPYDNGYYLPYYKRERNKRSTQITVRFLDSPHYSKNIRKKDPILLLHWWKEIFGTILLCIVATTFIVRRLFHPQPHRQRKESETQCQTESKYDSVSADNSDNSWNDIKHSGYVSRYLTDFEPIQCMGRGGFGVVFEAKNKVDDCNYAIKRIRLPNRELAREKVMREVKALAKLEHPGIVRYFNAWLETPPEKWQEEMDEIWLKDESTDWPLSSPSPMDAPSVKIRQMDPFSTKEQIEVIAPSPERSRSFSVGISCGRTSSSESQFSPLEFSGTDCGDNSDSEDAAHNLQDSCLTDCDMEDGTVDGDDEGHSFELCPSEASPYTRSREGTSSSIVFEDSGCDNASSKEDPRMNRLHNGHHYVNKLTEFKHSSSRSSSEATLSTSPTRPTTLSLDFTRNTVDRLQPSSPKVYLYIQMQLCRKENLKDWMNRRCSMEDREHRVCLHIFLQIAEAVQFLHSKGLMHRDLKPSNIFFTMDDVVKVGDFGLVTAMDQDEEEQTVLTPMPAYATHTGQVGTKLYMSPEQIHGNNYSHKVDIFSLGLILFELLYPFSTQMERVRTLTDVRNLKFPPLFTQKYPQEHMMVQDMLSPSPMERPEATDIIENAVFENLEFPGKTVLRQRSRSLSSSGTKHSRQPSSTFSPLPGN

IRE1α = IRE1α (Rattus norvegicus, UniProt A0A4Y1YQ52); test: Inhibition of IRE1α RNase output; format: cell-based
Sequence of IRE1α (A0A4Y1YQ52 21-977): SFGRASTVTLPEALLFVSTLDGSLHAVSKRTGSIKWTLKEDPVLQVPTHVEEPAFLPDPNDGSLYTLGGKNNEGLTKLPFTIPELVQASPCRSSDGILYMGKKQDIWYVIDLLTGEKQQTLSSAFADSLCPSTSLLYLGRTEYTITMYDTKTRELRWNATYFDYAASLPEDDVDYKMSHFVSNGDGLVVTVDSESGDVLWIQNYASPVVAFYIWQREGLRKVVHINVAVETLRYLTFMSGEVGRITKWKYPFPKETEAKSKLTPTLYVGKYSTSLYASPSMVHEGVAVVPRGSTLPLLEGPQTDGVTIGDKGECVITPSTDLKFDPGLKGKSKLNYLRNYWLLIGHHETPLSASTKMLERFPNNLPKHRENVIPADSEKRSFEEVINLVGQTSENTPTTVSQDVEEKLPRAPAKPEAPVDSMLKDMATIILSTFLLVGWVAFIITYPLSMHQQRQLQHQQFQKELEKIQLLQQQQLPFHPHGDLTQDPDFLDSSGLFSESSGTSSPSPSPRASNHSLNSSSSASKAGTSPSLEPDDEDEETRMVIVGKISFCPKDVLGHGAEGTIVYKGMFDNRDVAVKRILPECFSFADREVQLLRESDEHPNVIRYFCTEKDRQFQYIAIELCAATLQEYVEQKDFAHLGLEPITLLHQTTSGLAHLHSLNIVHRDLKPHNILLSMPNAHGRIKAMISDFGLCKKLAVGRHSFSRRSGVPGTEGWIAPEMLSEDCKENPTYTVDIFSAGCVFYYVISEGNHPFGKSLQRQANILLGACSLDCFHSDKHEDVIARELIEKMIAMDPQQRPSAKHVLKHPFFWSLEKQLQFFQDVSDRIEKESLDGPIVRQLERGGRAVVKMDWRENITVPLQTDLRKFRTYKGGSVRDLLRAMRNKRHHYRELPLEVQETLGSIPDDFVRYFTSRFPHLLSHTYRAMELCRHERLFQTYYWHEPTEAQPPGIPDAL

| IC50 (PERK) [nM] | IC50 (IRE1α) [nM] | SMILES |
| --- | --- | --- |
| ~125 |  | Cc1cccc(CC(=O)N2CCc3c2ccc(-c2cn(C)c4ncnc(N)c24)c3F)n1 [GSK2656157] |
|  | ~125 | Cc1ccc2c(NS(=O)(=O)c3ccccc3Cl)cccc2c1Oc1ncccc1-c1ccnc(N[C@H]2CCCNC2)n1 [KIRA8] |

Source: paper PMC6911642 (Cancer research, 2019)
